# Measurements published in patent publication US5039662A, “Peptide with anti-metastasis activity” (Monsanto, priority 1989, dated 1991).
# Peptide text beside a SMILES is read from it.
# Legend:
# HT-1080 cells = experiment: In vitro cell attachment assay; format: cell-based; conditions: HT-1080 human fibrosarcoma cells; attachment to peptide-coated wells / inhibition of attachment to laminin; FIG. 1
# Description: HT-1080 cells from a human fibrosarcoma (Rasheed, S. et al., Cancer (Philadelphia) 33:1027 (1974) are maintained in Dulbecco's modified Eagle's medium (DMEM) supplemented with 10% fetal calf serum. After the cells are grown to 80% confluency, they are washed with 0.02M phosphate buffer, pH 7.4, without CA ^30 2 and Mg^30 2 and detached with a solution of 0.025% trypsin plus 0.025% ethylenediaminetetraacetic acid (EDTA; GIBCO). The cells are then pelleted by lowspeed centrifugation and resuspended in Eagle's minimal essential medium (EMEM) containing 0.02% bovine serum albumin (BSA, Sigma Chemical Co., St. Louis, Mo.). Cell attachment assays are performed as described in Klebe, R. J. Nature (London) 250:248 (1974), on tissue culture plastic substrates by using 16-mm Falcon tissue culture wells (Fisher Scientific Co., Pittsburg, Pa.) incubated with various peptides or with laminin in 1 mL of EMEM containing 0.02% BSA for 1 or 2 hours at 37° C. Cells (10^5 in 0.1 1 mL) are added to the wells, and the solution is incubated for an additional 1 hour at 37° C. in 95% air and 5% CO2. Subsequently, the wells are rinsed 3 times with 1 mL of phosphate-buffered saline (PBS) to remove unattached cells. Attached cells are trypsinized and counted electronically (Coulter, ZBI). […]
# B16F10 melanoma cells = experiment: Lung tumor colonization assay; format: in vivo, C57BL/6 female mice; conditions: B16F10 cells (5×10^5) mixed with 0.1 mL peptide at 5 mg/mL, tail vein injection, lungs counted after three weeks, FIG. 2
# Description: B16F10 melanoma cells, obtained from I. J. Fidler, M. D., Anderson Hospital, Houston, Tex., are propagated under standard culture conditions. The lung tumor colonization assay is carried out as described in Fidler, I. J., Nature (London) (New Biol) 242:148 (1973). Peptides are dissolved at 5 mg/mL in PBS and are filter-sterilized. The suspension of B16F10 cells (5×10^5) in 0.1 mL of DMEM is mixed with 0.1 mL of the peptide, (or 0.1 ml PBS in Control) incubated for 5 minutes at room temperature, and then injected into the tail vein of syngeneic C57BL/6 female mice (Jackson Labs., Bar Habor, Me.) at 6 weeks of age. Each treatment and control group consists of eight mice. Three weeks after the injections, the mice are killed and the number of pulmonary tumors on the surface of the lungs counted.
compound,measurement,setting,value
CC[C@H](C)[C@H](NC(=O)[C@H](Cc1ccc(O)cc1)NC(C)=O)C(=O)NCC(=O)N[C@@H](CO)C(=O)N[C@@H](CCCNC(=N)N)C(N)=O [AcYIGSR-NH2] (Ac-YIGSR-NH2),cell adhesion activity,HT-1080 cells,having cell adhesion activity
same,antimetastatic effectiveness (number of pulmonary tumors on the surface of the lungs) relative to YIGSR-NH2,B16F10 melanoma cells,at least twice as effective as YIGSR-NH2
same,antimetastatic effectiveness (number of pulmonary tumors on the surface of the lungs) relative to YIGSR-NH2,B16F10 melanoma cells; listed as peptide of the invention,at least twice as effective as linear YIGSR-NH2
